Measured values published in patent US20120207763A1, “PYRROLOPYRIMIDINE COMPOUNDS AND THEIR USES” (ASTEX THERAPEUTICS LIMITED, priority 2006, published 2012).
pIC50: −log10 of the molar value. Where two headings read alike, the source gives them in different places.

Experiments:
Type in all cases: biochemical
[1] = molecular target: T1, JAK-3 (Homo sapiens, UniProt P52333); assay: JAK LANCE enzymatic assay (JAK-3)
T1 construct: GST fusion constructs of the kinase domains of both enzymes are used; GST
T1 sequence (P52333 822-1111 limits assumed): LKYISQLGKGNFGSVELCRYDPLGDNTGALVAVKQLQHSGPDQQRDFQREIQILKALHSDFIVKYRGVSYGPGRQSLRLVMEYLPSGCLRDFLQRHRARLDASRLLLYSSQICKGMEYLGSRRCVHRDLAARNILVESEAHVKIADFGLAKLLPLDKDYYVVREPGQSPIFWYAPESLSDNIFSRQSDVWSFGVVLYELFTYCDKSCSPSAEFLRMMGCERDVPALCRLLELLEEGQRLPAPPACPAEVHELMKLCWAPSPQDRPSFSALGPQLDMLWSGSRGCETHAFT
Description: Binding of cytokines and certain growth factors to their respective receptors trigger activation of Janus kinases, which phosphorylate members of the STAT family. Phosphorylated STAT molecules dimerize and migrate to the nucleus where they bind to DNA and initiate transcription of responsive genes. Inhibitors of pathways downstream of cytokine/growth factor receptors have therapeutic potential for several indications. An enzymatic assay for JAK-3 and JAK-2 has been developed to identify T-cell selective inhibitors. GST fusion constructs of the kinase domains of both enzymes are used and a biotinylated, tyrosine containing peptide serves as substrate. Phosphorylation of this peptide by the respective kinase is quantified with an europium-labeled anti-phosphotyrosine antibody (Eu-PT66) as energy donor and a streptavidin-allophycocyanine conjugate (SA-APC) as energy acceptor. The assay has been established in a 384 well format.
In the JAK LANCE™ assay, a biotinylated peptide is incubated together with compounds and ATP in buffer. The phosphorylation reaction starts after addition of JAK kinase. After incubation at RT the reaction is stopped with EDTA and the product detected by addition Streptavidin-Allophycocyanin and Europium-labeled antiphosphotyrosine antibody. The signal is measured using an EnVision Reader. Exc: 320 nm, Em, Donor: 615 nm and Em, Acceptor: 665 nm in time resolved fashion with a delay of […].

[2] = molecular target: CDK2/Cyclin-A kinase complex (Homo sapiens, UniProt P24941); assay: CDK2 IMAP fluorescence polarization assay; conditions: Table E; read-out: CDK2cyA IMAP/IC50 [umol l − 1]
Description: In order to test the CDK2 activity of the compounds of the invention, the CDK2 assay is a flourescence polarization assay, where the enzyme is a purified active CDK2/Cyclin-A kinase complex and the substrate is a synthesized peptide derived from Histone H1. This assay utilizes the IMAP technology from Molecular Devices. The active CDK2/Cyclin-A complex phosphorylates the peptide substrate, which is conjugated with the TAMRA tag. The phosphorylated site is then recognized by a metal containing molecule that interacts with the TAMRA tag to induce a high flourescence polarization. The compounds that inhibit the CDK2 kinase activity would inhibit the flourescence output of the assay.

[3] = molecular target: CDK4 (Homo sapiens, UniProt P11802); assay: CDK4 HTRF assay; conditions: Table E
Sequence of CDK4 (P11802 whole entry): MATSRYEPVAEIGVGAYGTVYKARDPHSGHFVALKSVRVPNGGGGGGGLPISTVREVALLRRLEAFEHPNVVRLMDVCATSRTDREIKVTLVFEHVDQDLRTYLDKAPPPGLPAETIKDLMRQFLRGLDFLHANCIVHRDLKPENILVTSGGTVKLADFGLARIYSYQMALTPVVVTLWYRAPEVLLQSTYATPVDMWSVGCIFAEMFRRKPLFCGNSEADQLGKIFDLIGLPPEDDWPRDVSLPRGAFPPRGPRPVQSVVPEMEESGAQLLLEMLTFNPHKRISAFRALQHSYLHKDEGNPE
Sequence of CDK4 (P24385 whole entry partner): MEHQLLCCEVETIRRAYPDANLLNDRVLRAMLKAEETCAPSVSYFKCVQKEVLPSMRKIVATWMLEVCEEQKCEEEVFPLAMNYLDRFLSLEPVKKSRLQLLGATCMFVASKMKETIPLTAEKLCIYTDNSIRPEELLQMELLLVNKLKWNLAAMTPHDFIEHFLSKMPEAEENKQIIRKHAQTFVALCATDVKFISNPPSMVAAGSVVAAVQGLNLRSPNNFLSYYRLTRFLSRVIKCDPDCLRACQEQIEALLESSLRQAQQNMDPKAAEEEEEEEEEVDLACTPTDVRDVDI

[4] = Table B, read-out: Jak-3 Lance/ IC50 [nmol I-1]
[5] = read-out: CDK4 HTRF/IC50 [umol l − 1]

| pIC50 ([1]; Table A, read-out: Jak-3/ IC50) | pIC50 [2] | pIC50 [3, 5] | Compound | further results |
| --- | --- | --- | --- | --- |
| ≥ 7.00 |  |  | CCC(CC)N1C(=O)Cc2cnc(Nc3ccc(N4CCC(N5CCN(C)CC5)CC4)cc3)nc21 |  |
| ≤ 7.00 |  |  | CCC(CC)N1C(=O)Cc2cnc(Nc3ccc(C(=O)N(C)C)cc3)nc21 |  |
| ≤ 7.00 |  |  | CCC(CC)N1C(=O)Cc2cnc(Nc3cccc(OCCN(CC)CC)c3)nc21 |  |
| ≤ 7.00 |  |  | CCC(CC)N1C(=O)Cc2cnc(Nc3ccc(C(=O)NCCN4CCN(C)CC4)cc3)nc21 |  |
| ≤ 7.00 |  |  | CCC(CC)N1C(=O)Cc2cnc(Nc3ccc(C(=O)NC(C)(C)C)cc3)nc21 |  |
| ≤ 7.00 |  |  | CCC(CC)n1ccc2cnc(Nc3ccc(N4CCN(C)CC4)cn3)nc21 [drawing 82] |  |
| ≤ 7.00 |  |  | CCC(CC)n1ccc2cnc(Nc3ccc(N4CCN(C(C)=O)CC4)cn3)nc21 [drawing 81] |  |
| ≤ 7.00 |  |  | CCC(CC)N1C(=O)Cc2cnc(Nc3cccc(C(=O)N4CCN(C)CC4)c3)nc21 |  |
| ≤ 7.00 |  |  | CCC(CC)N1C(=O)Cc2cnc(Cl)nc21 |  |
| ≤ 7.00 |  |  | CCC(CC)N1C(=O)Cc2cnc(Nc3ccc(NC(=O)c4cccnc4)cc3)nc21 |  |
| ≤ 7.00 |  |  | COc1ccc(C(=O)N2CCOCC2)cc1Nc1ncc2c(n1)NC(=O)C2 [drawing 17] |  |
| ≤ 7.00 |  |  | CCC(CC)N1C(=O)Cc2cnc(Nc3ccc(NC(C)=O)cc3)nc21 |  |
| ≤ 7.00 |  |  | CCC(CC)N1C(=O)Cc2cnc(Nc3ccc(N4CCN(C(C)=O)CC4)cn3)nc21 |  |
| ≥ 7.00 |  |  | CCC(CC)N1C(=O)Cc2cnc(Nc3ccc(N4CCN(S(C)(=O)=O)CC4)cc3)nc21 |  |
| ≤ 7.00 |  |  | CN1CCN(c2ccc(Nc3ncc4c(n3)N(C3CC3)C(=O)C4)cc2)CC1 |  |
|  |  |  | Cc1cn(C2CCCCC2)c2nc(Nc3ccc(N4CCNCC4)cc3)ncc12 | pIC50 [1, 4]: ≤ 7.00 |
|  |  |  | CCOC(OCC)c1cc2cnc(Nc3ccc(N4CCN(C(C)=O)CC4)cc3)nc2n1C(CC)CC [drawing 117] | pIC50 [1, 4]: ≤ 7.00 |
| ≥ 7.00 |  |  | CCC(CC)N1C(=O)Cc2cnc(Nc3ccc(C(=O)NC4CCCC4)cc3)nc21 |  |
|  |  |  | CC(=O)N1CCN(c2ccc(Nc3ncc4ccn(C5CCCC5)c4n3)cc2)CC1 [drawing 111] | pIC50 [1, 4]: ≤ 7.00 |

| pIC50 ([1]; Table A, read-out: Jak-3/ IC50) | pIC50 [2] | pIC50 [3, 5] | Compound | further results |
| --- | --- | --- | --- | --- |
| ≤ 7.00 |  |  | CCC(c1ccccc1)N1C(=O)Cc2cnc(Nc3cccc(OCCN4CCCC4)c3)nc21 (centres unmarked) |  |
|  |  |  | Cc1cn(C2CCCC2)c2nc(Nc3ccc(N4CCN(C)CC4)cc3)ncc12 | pIC50 [1, 4]: ≤ 7.00 |
|  |  |  | CCC(CC)n1c(C)cc2cnc(Nc3ccc(N4CCNCC4)cc3)nc21 [drawing 125] | pIC50 [1, 4]: ≥ 7.00 |
| ≤ 7.00 |  |  | CCC(CC)N1C(=O)Cc2cnc(Nc3ccc(C(=O)NCCN(C)C)cc3)nc21 |  |
| ≤ 7.00 |  |  | COc1ccc(C(=O)N2CCN(C)CC2)cc1Nc1ncc2c(n1)NC(=O)C2 [drawing 20] |  |
| ≤ 7.00 |  |  | CCC(CC)N1C(=O)Cc2cnc(Nc3cc(NC(=O)c4ccncc4)ccc3F)nc21 |  |
| ≤ 7.00 |  |  | CN1CCN(c2ccc(Nc3ncc4c(n3)NC(=O)C4)cc2)CC1 |  |
| ≤ 7.00 |  |  | CCC(CC)N1C(=O)Cc2cnc(Nc3ccc(S(=O)(=O)N4CCN(C)CC4)cc3)nc21 |  |
| ≥ 7.00 |  |  | CCC(c1ccccc1)n1ccc2cnc(Nc3ccc(N4CCN(C(C)=O)CC4)cc3)nc21 (centres unmarked) |  |
| ≥ 7.00 |  |  | CCC(CC)N1C(=O)Cc2cnc(Nc3cccc(NCCN4CCN(C)CC4)c3)nc21 |  |
| ≤ 7.00 |  |  | O=C1Cc2cnc(Nc3ccc(N4CCOCC4)cc3)nc2N1 |  |
| ≥ 7.00 |  |  | CCNC(=O)c1ccc(Nc2ncc3c(n2)N(C(CC)CC)C(=O)C3)cc1 |  |
| ≤ 7.00 |  |  | CCC(CC)N1C(=O)Cc2cnc(Nc3cccc(OCCN4CCN(C)CC4)c3)nc21 |  |
| ≤ 7.00 |  |  | CCC(CC)N1C(=O)Cc2cnc(Nc3ccc4[nH]ncc4c3)nc21 |  |
| ≤ 7.00 |  |  | CCC(CC)N1C(=O)Cc2cnc(Nc3cc(NC(=O)c4ccncc4)ccc3OC)nc21 |  |
| ≥ 7.00 |  |  | CCC(CC)N1C(=O)Cc2cnc(Nc3ccc(N4CCN(C)CC4)cc3)nc21 |  |
|  |  |  | CCC(CC)n1cc(C)c2cnc(Nc3ccc(N4CCN(C(C)=O)CC4)cc3)nc21 [drawing 101] | pIC50 [1, 4]: ≤ 7.00 |
|  | < 5.00 | 5.00 | Cc1cn(C2CCCC2)c2nc(Nc3ccccc3F)ncc12 [Example 441] |  |
|  | > 5.00 | < 5.00 | CN(C)c1ccc(Nc2ncc3ccn(C4CCCC4)c3n2)cc1 [Example 262] |  |

| pIC50 ([1]; Table A, read-out: Jak-3/ IC50) | pIC50 [2] | pIC50 [3, 5] | Compound | further results |
| --- | --- | --- | --- | --- |
|  | > 5.00 | > 6.00 | CCC(CC)n1ccc2cnc(Nc3ccc(N4CCNCC4)cc3)nc21 [Example 202, [7-(1-Ethyl-propyl)-7H-pyrrolo[2,3-d]pyrimidin-2-yl]-(4-piperazin-1-yl-phenyl)-amine] |  |
|  | > 5.00 | > 6.00 | c1cc(N2CCNCC2)ccc1Nc1ncc2ccn(C3CCCC3)c2n1 [Example 256] |  |
|  | < 5.00 | < 5.00 | Brc1cn(C2CCCC2)c2nc(Nc3ccc(N4CCNCC4)cn3)ncc12 [Example 432] |  |
|  | > 5.00 | > 6.00 | CCC(CC)n1c(C(=O)N(C)C)cc2cnc(Nc3ccc(N4CCNCC4)cc3)nc21 [Example 335, 7-(1-ethyl-propyl)-2-(4-piperazin-1-yl-phenylamino)-7H-pyrrolo[2,3-d]pyrimidine-6-carboxylic acid dimethyl amide] |  |
|  | > 6.00 | > 6.00 | c1cc(N2CCNCC2)ccc1Nc1ncc2ccn(C34CC5CC(CC(C5)C3)C4)c2n1 [Example 245] |  |
|  | < 5.00 | 5.00 | Cc1cn(C2CCCC2)c2nc(Nc3ccccc3[N+](=O)[O-])ncc12 [Example 295] |  |
|  | > 6.00 | > 6.00 | c1cc(N2CCNCC2)ccc1Nc1ncc2ccn(C3CCCCC3)c2n1 [Example 246] |  |
|  | > 5.00 | > 6.00 | CC1CCCC(n2ccc3cnc(Nc4ccc(N5CCNCC5)cc4)nc32)C1 (centres unmarked) [Example 242] |  |
|  | > 5.00 | 5.00 | Cc1cn(C2CCCC2)c2nc(Nc3cccc(Cl)c3)ncc12 [Example 299] |  |
|  | < 5.00 | 5.00 | Cc1cn(C2CCCC2)c2nc(Nc3ccc(N4CCN(S(C)(=O)=O)CC4)cn3)ncc12 [Example 287] |  |
|  | > 5.00 | > 6.00 | Cc1c(-c2cnco2)n(C2CCCC2)c2nc(Nc3ccc(N4CCNCC4)cn3)ncc12 [Example 399] |  |
|  | > 5.00 | 5.00 | COc1cccc(Nc2ncc3c(C)cn(C4CCCC4)c3n2)c1 [Example 294] |  |
|  | < 5.00 | > 6.00 | COC(=O)c1c(C)c2cnc(Nc3ccc(N4CCNCC4)cn3)nc2n1C1CCCC1 [Example 384, 7-Cyclopentyl-5-methyl-2-(5-piperazin-1-yl-pyridin-2-ylamino)-7H-pyrrolo[2,3-d]pyrimidine-6-carboxylic acid methyl ester] |  |
|  | < 5.00 | 5.00 | Cc1cn(C2CCCC2)c2nc(Nc3ccccc3Cl)ncc12 [Example 443] |  |
|  | < 5.00 | < 5.00 | COC(=O)c1c(C)n(C2CCCC2)c2nc(Nc3ccc(N4CCNCC4)cn3)ncc12 [Example 385, 7-Cyclopentyl-6-methyl-2-(5-piperazin-1-yl-pyridin-2-ylamino)-7H-pyrrolo[2,3-d]pyrimidine-5-carboxylic acid methyl ester] |  |
|  | < 5.00 | < 5.00 | Cc1ccc(Nc2ncc3ccn(C4CCCC4)c3n2)nc1 [Example 434] |  |
|  | > 5.00 | 5.00 | Cc1cn(C2CCCC2)c2nc(Nc3ccc(F)cc3)ncc12 [Example 442] |  |
|  | > 5.00 | < 5.00 | CCN(CC)c1ccc(Nc2ncc3ccn(C4CCCC4)c3n2)cc1 [Example 261] |  |
|  | < 5.00 | 5.00 | Cc1cn(-c2cccnc2)c2nc(Nc3ccc(N4CCNCC4)cn3)ncc12 [Example 447] |  |

| Compound | pIC50 ([1]; Table A, read-out: Jak-3/ IC50) | pIC50 [2] | pIC50 [3, 5] | further results |
| --- | --- | --- | --- | --- |
| c1cc(Nc2ncc3ccn(C4CCCC4)c3n2)ncc1N1CCNCC1 [Example 424] |  | < 5.00 |  | pIC50 ([3]; CDK4 HTRF/IC50 [umol l − 1]): > 6.00 |
